This passage reports EC50 and IC50 results from patent US7265152B2 (ViroPharma Incorporated, priority 2002, dated 2007).

pEC50, pIC50: −log10 of the molar value. Like-named read-outs stand apart in the source and are kept apart here.

Test [1] has as its system HCV replicon (BB7 sequence) in Huh-7-Clone A cells. Briefly: HCV replicon assay: ELISA of NS5A protein in replicon-containing cells (Inhibition of Viral RNA Replication). To be noted: Hepatitis C virus, read-out: Replicon. It counts as cell-based. Summed up:
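EC50 taken from an 8-point serially diluted dose curve, with NS5A level as read-out: fixed cells probed with primary monoclonal and HRP-conjugated secondary, TMB developed 30 min, OD 650 nm. Compound exposure 72 h in Huh-7-Clone A replicon cells (BB7 sequence).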
(A replicon is a self-replicating genome or part of one, used to study replication in cells.)

The next test addresses T1, HCV NS5B (Hepatitis C virus genotype 1b, UniProt Q9WMX2).
T1 construct: fusion protein, of which the carboxyl terminal 21 amino acids were removed to enhance its solubility; His tag (GSHHHHHH); made in house; host or cells: E. coli
The test can be described thus: Inhibition of viral RNA-dependent RNA polymerase (RdRp), in vitro biochemical assay. Also noted: species or system HCV genotype 1b virus (BB7). As to conditions: read-out: HCV pol-BB7 IC50. Summed up: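 IC50 values are the concentrations that halve in vitro RNA synthesis by HCV NS5B polymerase. The enzyme was a C-terminally truncated (Δ21), His-tagged genotype 1b (BB7 consensus) protein purified from E. coli.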

[2] abbreviates: Huh-7-Clone A, NS5A ELISA, 72-hour incubation, ranges of EC50.
Setting [3] is: purified His-tagged NS5B (BB7), carboxyl terminal 21 amino acids removed.
Setting [4] is: HCV replicon assay, ranges of 50% effective concentration (EC50).
Where [5] appears, read: HCV NS5B polymerase, BB7 (genotype 1b), values given as range classes A-D.
The mark [6] stands for this setting: HCV replicon assay, ranges of EC50.
The mark [7] stands for this setting: HCV NS5B RdRp, BB7, activity class.
The mark [8] stands for this setting: HCV NS5B RdRp, BB7, class symbols A-D.
Setting [9] is: HCV NS5B RdRp, BB7, reported as range class.
[10] abbreviates: ranges of EC50 in HCV replicon assay.

Broadly, the pIC50 is −log10 of the IC50, conventionally taken in molar units. Consider `CNC(=O)c1c(-c2ccc(C(F)(F)F)cc2)oc2ccc(OC)cc12` [Example 56, 5-Methoxy-2-(4-trifluoromethyl-phenyl)-benzofuran-3-carboxylic acid methylamide], for which the pEC50 in test [1] (setting [2]) is over 5.00. In addition, the negative logarithm of the IC50 (pIC50) on HCV NS5B (setting [3]) is 5.30 to 6.30.

Take `CNC(=O)c1c(-c2ccc(F)cc2)oc2cc(C(C)(C)N)c(OC)cc12` [Example 384, 6-(1-Amino-1-methyl-ethyl)-2-(4-fluoro-phenyl)-5-methoxy-benzofuran-3-carboxylic acid methylamide]: the pEC50 in test [1] (setting [4]) was over 4.52. For the same compound, the pIC50 on HCV NS5B (setting [5]) was 5.30 to 6.30.

In the case of `CCNC(=O)c1c(-c2ccc(F)cc2)oc2cc(-c3c(C)noc3C)c(OC)cc12` [Example 378, 6-(3,5-Dimethyl-isoxazol-4-yl)-2-(4-fluoro-phenyl)-5-methoxy-benzofuran-3-carboxylic acid ethylamide], in test [1] (setting [6]), the pEC50 was over 6.00. Further, the negative logarithm of the IC50 (pIC50) on HCV NS5B (setting [7]) was at least 6.30.

As for `CNC(=O)c1c(-c2ccc(F)cc2)oc2cc(-c3c(C)noc3C)c(OCc3cscn3)cc12` [Example 401, 6-(3,5-Dimethyl-isoxazol-4-yl)-2-(4-fluoro-phenyl)-5-(thiazol-4-ylmethoxy)-benzofuran-3-carboxylic acid methylamide], the pEC50 in test [1] (setting [4]) was over 6.00. Further, the pIC50 at HCV NS5B (setting [5]) is at least 6.30.

Consider `CNC(=O)c1c(-c2ccc(F)cc2)oc2cc(N(CCOC(F)(F)F)S(C)(=O)=O)c(OC)cc12` [Example 316, 2-(4-Fluoro-phenyl)-6-[methanesulfonyl-(2-trifluoromethoxy-ethyl)-amino]-5-methoxy-benzofuran-3-carboxylic acid methylamide], for which, in test [1] (setting [6]), the pEC50 is over 6.00. Moreover, the negative-log IC50 (pIC50) on HCV NS5B (setting [8]) is 5.30 to 6.30.

With `CNC(=O)c1c(-c2ccc(F)cc2)oc2cc(-c3cc(COC)no3)c(OC(C)C)cc12` [Example 242, 2-(4-Fluoro-phenyl)-5-isopropoxy-6-(3-methoxymethyl-isoxazol-5-yl)-benzofuran-3-carboxylic acid methylamide], the pEC50 in test [1] (HCV replicon, range of EC50) is 4.52. At HCV NS5B (setting [9]), the pIC50 is 5.30 to 6.30.

With `CNC(=O)c1c(-c2ccc(F)cc2)oc2cc(N3CCOCC3)c(OCc3nccs3)cc12` [Example 33, 2-(4-Fluoro-phenyl)-6-morpholin-4-yl-5-(thiazol-2-ylmethoxy)-benzofuran-3-carboxylic acid methylamide], the pEC50 in test [1] (setting [2]) is over 6.00. For the same compound, the pIC50 at HCV NS5B (setting [3]) was at least 6.30.

In the case of `CNC(=O)c1c(-c2ccc(F)cc2)oc2cc(N(C)S(C)(=O)=O)c(OCc3csc(C)n3)cc12` [Example 320, 2-(4-Fluoro-phenyl)-6-(methanesulfonyl-methyl-amino)-5-(2-methyl-thiazol-4-ylmethoxy)-benzofuran-3-carboxylic acid methylamide], the pEC50 in test [1] (setting [6]) was over 6.00. The negative-log IC50 (pIC50) at HCV NS5B (setting [8]) is at least 6.30.

Turning to `CCOc1cc(F)ccc1-c1oc2cc(-c3c(C)noc3C)c(OC)cc2c1C(=O)NC` [Example 318, 6-(3,5-Dimethyl-isoxazol-4-yl)-2-(2-ethoxy-4-fluoro-phenyl)-5-methoxy-benzofuran-3-carboxylic acid methylamide], the pEC50 in test [1] (setting [6]) is under 4.52. Also, the negative logarithm of the IC50 (pIC50) on HCV NS5B (setting [8]) was at least 6.30.

Consider `CNC(=O)c1c(-c2ccccc2)oc2ccc(C)cc12` [Example 9, 5-Methyl-2-phenyl-benzofuran-3-carboxylic acid methylamide], for which the pEC50 in test [1] (setting [2]) is over 5.00. Moreover, the negative logarithm of the IC50 (pIC50) on HCV NS5B (setting [3]) was 5.30 to 6.30.

As for `CNC(=O)CN(c1cc2oc(-c3ccc(F)cc3)c(C(=O)NC)c2cc1OC)S(C)(=O)=O` [Example 331, 2-(4-Fluoro-phenyl)-6-(methanesulfonyl-methylcarbamoylmethyl-amino)-5-methoxy-benzofuran-3-carboxylic acid methylamide], in test [1] (setting [6]), the pEC50 was over 6.00. For the same compound, the pIC50 at HCV NS5B (setting [7]) was at least 6.30.

For the compound `CNC(=O)c1c(-c2ccc(F)cc2)oc2cc(Nc3c(C)noc3C)c(OC(C)C)cc12` [Example 235, 6-(3,5-Dimethyl-isoxazol-4-ylamino)-2-(4-fluoro-phenyl)-5-isopropoxy-benzofuran-3-carboxylic acid methylamide], in test [1] (HCV replicon, range of EC50), the pEC50 was under 4.52. The pIC50 on HCV NS5B (setting [9]) is 4.52 to 5.30.

As to `CNC(=O)c1c(-c2ccc(F)cc2)oc2cc(-c3nnc[nH]3)c(OC(C)C)cc12` [Example 279, 2-(4-Fluoro-phenyl)-5-isopropoxy-6-(4H-[1,2,4]triazol-3-yl)-benzofuran-3-carboxylic acid methylamide], in test [1] (setting [6]), the pEC50 is over 4.52. The pIC50 at HCV NS5B (setting [8]) is at least 6.30.

`CNC(=O)c1c(-c2ccc(F)cc2)oc2cc(-c3noc(C)n3)c(OC)cc12` [Example 50, 2-(4-Fluoro-phenyl)-5-methoxy-6-(5-methyl-[1,2,4]oxadiazol-3-yl)-benzofuran-3-carboxylic acid methylamide]: in test [1] (setting [2]), the pEC50 is over 6.00. Moreover, the pIC50 on HCV NS5B (setting [3]) was at least 6.30.

As to `CCNc1cc2oc(-c3ccc(F)cc3)c(C(=O)NC)c2cc1O` [Example 364, 6-Ethylamino-2-(4-fluoro-phenyl)-5-hydroxy-benzofuran-3-carboxylic acid methylamide], the pEC50 in test [1] (setting [6]) was under 4.52. Besides, on HCV NS5B (setting [7]), the negative logarithm of the IC50 (pIC50) was 5.30 to 6.30.

As for `CNC(=O)c1c(-c2ccc(F)cc2)oc2cc(-c3cccnc3)c(OC)cc12` [Example 236, 2-(4-Fluoro-phenyl)-5-methoxy-6-pyridin-3-yl-benzofuran-3-carboxylic acid methylamide], the pEC50 in test [1] (HCV replicon, range of EC50) was over 6.00. Besides, on HCV NS5B (setting [9]), the negative-log IC50 (pIC50) was at least 6.30.

For `CNC(=O)c1c(-c2ccc(F)c(Cl)c2)oc2ccc(OC)cc12` [Example 76, 2-(3-Chloro-4-fluoro-phenyl)-5-methoxy-benzofuran-3-carboxylic acid methylamide], the pEC50 in test [1] (setting [2]) is over 5.00. The negative logarithm of the IC50 (pIC50) at HCV NS5B (setting [3]) was 5.30 to 6.30.

As for `CNC(=O)c1c(-c2ccc(F)cc2)oc2cc(N(C)S(C)(=O)=O)c(OCc3cc(C)on3)cc12` [Example 396, 2-(4-Fluoro-phenyl)-6-(methanesulfonyl-methyl-amino)-5-(5-methyl-isoxazol-3-ylmethoxy)-benzofuran-3-carboxylic acid methylamide], the pEC50 in test [1] (setting [4]) was over 6.00. Also, the pIC50 on HCV NS5B (setting [5]) is at least 6.30.

Turning to `CNC(=O)c1c(-c2ccc(F)cc2)oc2cc(Br)c(OC(C)C)cc12` [Example 92, 6-Bromo-2-(4-fluoro-phenyl)-5-isopropoxy-benzofuran-3-carboxylic acid methylamide], the pEC50 in test [1] (setting [10]) is over 6.00. For the same compound, the negative-log IC50 (pIC50) on HCV NS5B (HCV NS5B RdRp, BB7 genotype 1b) was at least 6.30.

As for `CNC(=O)c1c(-c2ccccc2)oc2ccc(C(C)C)cc12` [Example 86, 5-Isopropyl-2-phenyl-benzofuran-3-carboxylic acid methylamide], the pEC50 in test [1] (setting [2]) was over 5.00. For the same compound, the pIC50 on HCV NS5B (setting [3]) is at least 6.30.

As for `CNC(=O)c1c(-c2ccc(F)cc2)oc2cc(N3CCC(F)(F)CC3)c(OC(C)C)cc12` [Example 170, 6-(4,4-Difluoro-piperidin-1-yl)-2-(4-fluoro-phenyl)-5-isopropoxy-benzofuran-3-carboxylic acid methylamide], in test [1] (setting [10]), the pEC50 was over 6.00. Also, the pIC50 on HCV NS5B (HCV NS5B RdRp, BB7 genotype 1b) is 4.52 to 5.30.

Consider `CNC(=O)c1c(-c2ccc(F)cc2)oc2cc(N(C)S(C)(=O)=O)c(OCc3nsc(NCC4CC4)n3)cc12` [Example 374, 5-[5-(Cyclopropylmethyl-amino)-[1,2,4]thiadiazol-3-ylmethoxy]-2-(4-fluoro-phenyl)-6-(methanesulfonyl-methyl-amino)-benzofuran-3-carboxylic acid methylamide], for which the pEC50 in test [1] (setting [6]) was over 6.00. Further, the pIC50 at HCV NS5B (setting [7]) is at least 6.30.

In the case of `CNC(=O)c1c(-c2ccc(F)cc2)oc2cc(-c3noc(C(F)(F)F)n3)c(OC(C)C)cc12` [Example 184, 2-(4-Fluoro-phenyl)-5-isopropoxy-6-(5-trifluoromethyl-[1,2,4]oxadiazol-3-yl)-benzofuran-3-carboxylic acid methylamide], the pEC50 in test [1] (HCV replicon, range of EC50) is over 4.52. Besides, the negative-log IC50 (pIC50) at HCV NS5B (setting [9]) was 5.30 to 6.30.

Consider `CNC(=O)c1c(-c2ccc(F)cc2)oc2cc(N(C)S(C)(=O)=O)c(OCc3c(C)noc3C)cc12` [Example 324, 5-(3,5-Dimethyl-isoxazol-4-ylmethoxy)-2-(4-fluoro-phenyl)-6-(methanesulfonyl-methyl-amino)-benzofuran-3-carboxylic acid methylamide], for which, in test [1] (setting [6]), the pEC50 was over 6.00. For the same compound, at HCV NS5B (setting [8]), the pIC50 was at least 6.30.

Consider `CNC(=O)c1c(-c2ccc(F)cc2)oc2cc(-c3ccc(F)nc3)c(OC(C)C)cc12` [Example 161, 2-(4-Fluoro-phenyl)-6-(6-fluoro-pyridin-3-yl)-5-isopropoxy-benzofuran-3-carboxylic acid methylamide], for which the pEC50 in test [1] (setting [10]) is over 5.00. In addition, the negative logarithm of the IC50 (pIC50) on HCV NS5B (HCV NS5B RdRp, BB7 genotype 1b) is at least 6.30.

For `CNC(=O)c1c(-c2ccc(F)cc2)oc2cc(N3CCOCC3)c(OC3CCCC3)cc12` [Example 173, 5-Cyclopentyloxy-2-(4-fluoro-phenyl)-6-morpholin-4-yl-benzofuran-3-carboxylic acid mehtylamide], the pEC50 in test [1] (HCV replicon, range of EC50) is over 6.00. Besides, the pIC50 on HCV NS5B (setting [9]) is at least 6.30.
